Laboratory results from publication PMC10719919 (ACS Omega, 2023).

What was measured:
AChE EC 3.1.1.7 = AChE EC 3.1.1.7 (Electrophorus electricus, UniProt O42275); assay: biochemical
AChE = AChE (Electrophorus electricus, UniProt O42275); assay: Enzyme kinetics of AChE inhibition; assay type: biochemical; conditions: for Vmax (μmol/min)^−^1: Vmax of AChE, not apparent
human neutrophils = assay: Cytotoxicity: human neutrophil viability assay; assay type: cell-based; conditions: 200 μg/mL
[1] = Cytotoxicity: human neutrophil viability assay; assay type: cell-based; conditions: human
rabbit jejunum [2] = assay: Spasmolytic activity on spontaneous contraction of isolated rabbit jejunum; conditions: spontaneously contracting isolated rabbit jejunum; Mean ± SEM, n = 3
rabbit jejunum [3] = conditions: high K+ (80 mM)-contracted isolated rabbit jejunum; Mean ± SEM, n = 3

AChE EC 3.1.1.7, sequence (O42275 24-633): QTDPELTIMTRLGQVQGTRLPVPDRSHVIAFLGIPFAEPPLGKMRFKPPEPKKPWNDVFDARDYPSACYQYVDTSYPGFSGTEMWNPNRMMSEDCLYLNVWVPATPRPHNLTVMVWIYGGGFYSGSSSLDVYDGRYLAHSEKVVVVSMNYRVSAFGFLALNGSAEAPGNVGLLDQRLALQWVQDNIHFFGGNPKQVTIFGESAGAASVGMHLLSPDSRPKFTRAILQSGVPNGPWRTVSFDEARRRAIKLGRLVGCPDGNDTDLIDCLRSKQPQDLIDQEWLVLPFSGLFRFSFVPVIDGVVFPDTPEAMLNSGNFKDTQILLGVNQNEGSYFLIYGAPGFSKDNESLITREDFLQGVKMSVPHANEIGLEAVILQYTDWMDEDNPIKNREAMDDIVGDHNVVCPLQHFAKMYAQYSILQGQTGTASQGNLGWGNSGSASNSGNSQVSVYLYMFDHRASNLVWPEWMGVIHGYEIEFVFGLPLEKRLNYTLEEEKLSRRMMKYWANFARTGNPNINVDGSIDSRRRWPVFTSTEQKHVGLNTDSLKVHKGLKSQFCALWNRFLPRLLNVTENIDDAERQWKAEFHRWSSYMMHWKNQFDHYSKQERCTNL
AChE, sequence (O42275 24-633): as above

SMILES	IC50 (AChE EC 3.1.1.7) [µM]	Ki (AChE) [µM]	type of inhibition (AChE)	Vmax (μmol/min)^−^1 (AChE)	toxicity in the neutrophil viability assay (in words) (human neutrophils)	viability at 30 min, 200 µg/ml [1] [%]	Effective dose (ED50), Spontaneous (rabbit jejunum [2]) [µg/mL]	Effective dose (ED50), High K+ (rabbit jejunum [3]) [µg/mL]
CCSc1nc2ccccc2n1Cc1nnc(-c2ccc(F)cc2)o1 [Compound 15, 2-((2-(Ethylthio)-1H-benzo[d]imidazole-1-yl)methyl)-5-(4-fluorophenyl)-1,3,4-oxadiazole]	130.5 ± 1.03	53.3 ± 1.4	noncompetitive	5.0 (μmol/min)^−^1				
CCCCCCCc1nnc(Cn2c(SCC)nc3ccccc32)o1 [Compound 16, 2-((2-(Ethylthio)-1H-benzo[d]imidazole-1-yl)methyl)-5-heptyl-1,3,4-oxadiazole]	41.9 ± 0.67	18.3 ± 1.7	noncompetitive	5.0 (μmol/min)^−^1	nontoxic	96.1 ± 2.5	0.12 ± 0.00	0.22 ± 0.01
CCSc1nc2ccccc2n1Cc1nnc(-c2ccco2)o1 [Compound 17, 2-((2-(Ethylthio)-1H-benzo[d]imidazole-1-yl)methyl)-5-(furan-2-yl)-1,3,4-oxadiazole]	69.7 ± 0.95	24.3 ± 1.3	noncompetitive	5.0 (μmol/min)^−^1	nontoxic	100 ± 1	0.13 ± 0.07	0.26 ± 0.05
CCSc1nc2ccccc2n1Cc1nnc(-c2cccc(OC)c2O)o1 [Compound 18, 2-(5-((2-(Ethylthio)-1H-benzo[d]imidazole-1-yl)methyl)-1,3,4-oxadiazol-2-yl)-6-methoxyphenol]	248.8 ± 1.02	98.77 ± 0.7	noncompetitive	5.0 (μmol/min)^−^1				
CCOc1cccc(-c2nnc(Cn3c(SCC)nc4ccccc43)o2)c1O [Compound 19, 2-Ethoxy-6-(5-((2-(ethylthio)-1H-benzo[d]imidazole-1-yl)methyl)-1,3,4-oxadiazol-2-yl)phenol]	223.5 ± 0.96	93.3 ± 1.5	noncompetitive	5.0 (μmol/min)^−^1				
CCSc1nc2ccccc2n1Cc1nnc(-c2ccc(OC)cc2)o1 [Compound 20, 2-((2-(Ethylthio)-1H-benzo[d]imidazole-1-yl)methyl)-5-(4-methoxyphenyl)-1,3,4-oxadiazole]	380.1 ± 0.87	147 ± 1.9	noncompetitive	5.0 (μmol/min)^−^1				
CCSc1nc2ccccc2n1Cc1nnc(-c2ccccc2OC)o1 [Compound 21, 2-((2-(Ethylthio)-1H-benzo[d]imidazole-1-yl)methyl)-5-(2-methoxyphenyl)-1,3,4-oxadiazole]	291.9 ± 1.52	112 ± 1.3	noncompetitive	5.0 (μmol/min)^−^1				
CCSc1nc2ccccc2n1Cc1nnc(-c2ccc(C)o2)o1 [Compound 22, 2-((2-(Ethylthio)-1H-benzo[d]imidazole-1-yl)methyl)-5-(5-methylfuran-2-yl)-1,3,4-oxadiazole]	97.94 ± 0.79	32.1 ± 1.4	noncompetitive	5.0 (μmol/min)^−^1				
CCSc1nc2ccccc2n1Cc1nnc(-c2ccccc2Cl)o1 [Compound 23, 2-(2-Chlorophenyl)-5-((2-(ethylthio)-1H-benzo[d]imidazole-1-yl)methyl)-1,3,4-oxadiazole]	118 ± 1.41	45.1 ± 0.9	noncompetitive	5.0 (μmol/min)^−^1				
CCSc1nc2ccccc2n1Cc1nnc(-c2ccc(OC)c(OC)c2)o1 [Compound 24, 2-(3,4-Dimethoxyphenyl)-5-((2-(ethylthio)-1H-benzo[d]imidazole-1-yl)methyl)-1,3,4-oxadiazole]	692 ± 0.99	284.2 ± 1.2	noncompetitive	5.0 (μmol/min)^−^1				
CCSc1nc2ccccc2n1Cc1nnc(-c2ccc(Cl)cc2)o1 [Compound 25, 2-(4-Chlorophenyl)-5-((2-(ethylthio)-1H-benzo[d]imidazole-1-yl)methyl)-1,3,4-oxadiazole]	208.3 ± 1.39	83.21 ± 0.6	noncompetitive	5.0 (μmol/min)^−^1				
CCSc1nc2ccccc2n1Cc1nnc(-c2ccc(O)cc2)o1 [Compound 26, 4-(5-((2-(Ethylthio)-1H-benzo[d]imidazole-1-yl)methyl)-1,3,4-oxadiazol-2-yl)phenol]	93.2 ± 0.96	30.5 ± 1.9	noncompetitive	5.0 (μmol/min)^−^1				
CCSc1nc2ccccc2n1Cc1nnc(-c2cc(OC)c(OC)c(OC)c2)o1 [Compound 27, 2-((2-(Ethylthio)-1H-benzo[d]imidazole-1-yl)methyl)-5-(3,4,5-trimethoxyphenyl)-1,3,4-oxadiazole]	1580.2 ± 0.76	775.02 ± 0.5	noncompetitive	5.0 (μmol/min)^−^1				
CCSc1nc2ccccc2n1Cc1nnc(-c2ccc([N+](=O)[O-])cc2)o1 [Compound 28, 2-((2-(Ethylthio)-1H-benzo[d]imidazole-1-yl)methyl)-5-(4-nitrophenyl)-1,3,4-oxadiazole]	750.9 ± 1.19	289.2 ± 0.8	noncompetitive	5.0 (μmol/min)^−^1				
CCSc1nc2ccccc2n1Cc1nnc(-c2ccc(F)c(OC)c2)o1 [Compound 29, 2-((2-(Ethylthio)-1H-benzo[d]imidazole-1-yl)methyl)-5-(4-fluoro-3-methoxyphenyl)-1,3,4-oxadiazole]	84.2 ± 1.99	34.2 ± 0.9	noncompetitive	5.0 (μmol/min)^−^1				
CCSc1nc2ccccc2n1Cc1nnc(-c2ccc(O)cc2O)o1 [Compound 30, 4-(5-((2-(Ethylthio)-1H-benzo[d]imidazole-1-yl)methyl)-1,3,4-oxadiazol-2-yl)benzene-1,3-diol]	1190 ± 0.65	456.71 ± 0.2	noncompetitive	5.0 (μmol/min)^−^1				
CCSc1nc2ccccc2n1Cc1nnc(-c2ccccc2O)o1 [Compound 31, 2-(5-((2-(Ethylthio)-1H-benzo[d]imidazole-1-yl)methyl)-1,3,4-oxadiazol-2-yl)phenol]	248.5 ± 1.81	89.5 ± 1.5	noncompetitive	5.0 (μmol/min)^−^1				
CCSc1nc2ccccc2n1Cc1nnc(-c2cccc(O)c2)o1 [Compound 32, 3-(5-((2-(Ethylthio)-1H-benzo[d]imidazole-1-yl)methyl)-1,3,4-oxadiazol-2-yl)phenol]	400.7 ± 0.95	148.8 ± 0.2	noncompetitive	5.0 (μmol/min)^−^1				
CCSc1nc2ccccc2n1Cc1nnc(-c2cccc(O)c2O)o1 [Compound 33, 3-(5-((2-(Ethylthio)-1H-benzo[d]imidazole-1-yl)methyl)-1,3,4-oxadiazol-2-yl)benzene-1,2-diol]	320.6 ± 1.12	121 ± 0.5	noncompetitive	5.0 (μmol/min)^−^1				
CCSc1nc2ccccc2n1Cc1nnc(-c2ccc(C)cc2)o1 [Compound 34, 2-((2-(Ethylthio)-1H-benzo[d]imidazole-1-yl)methyl)-5-(p-tolyl)-1,3,4-oxadiazole]	377.4 ± 1.57	135.2 ± 0.5	noncompetitive	5.0 (μmol/min)^−^1				
CCSc1nc2ccccc2n1Cc1nnc(-c2ccc(N(CC)CC)cc2)o1 [Compound 35, N,N-Diethyl-4-(5-((2-(ethylthio)-1H-benzo[d]imidazole-1-yl)methyl)-1,3,4-oxadiazol-2-yl)aniline]	258.1 ± 1.02	101.3 ± 0.3	noncompetitive	5.0 (μmol/min)^−^1				
COc1ccc2c3c1O[C@H]1C[C@@H](O)C=C[C@@]31CCN(C)C2 [Galanthamine, reference compound]						96 ± 3.1		
